Paper PMC8309051, “Structure–Activity Relationship and Molecular Docking of a Kunitz-Like Trypsin Inhibitor, Kunitzin-AH, from the Skin Secretion of Amolops hainanensis” (Pharmaceutics, 2021)
Where two headings read alike, the source gives them in different places. Where a SMILES comes first, the peptide text is derived from it. Bridges are numbered along the chain shown (N, C = ends).

Tests used:
bovine trypsin = molecular target: T1, bovine trypsin (Bos taurus, UniProt P00760); test: Trypsin inhibition assay (kinetic, substrate Phe-Pro-Arg-AMC); assay type: biochemical
T1 sequence (P00760 24-246): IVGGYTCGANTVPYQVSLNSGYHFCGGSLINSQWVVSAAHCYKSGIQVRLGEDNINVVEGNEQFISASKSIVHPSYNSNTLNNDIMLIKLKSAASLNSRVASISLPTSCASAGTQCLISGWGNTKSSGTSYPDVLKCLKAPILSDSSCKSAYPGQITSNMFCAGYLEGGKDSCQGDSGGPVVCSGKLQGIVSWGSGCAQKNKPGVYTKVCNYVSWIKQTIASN
Experimental: The kinetic enzyme assay was performed as described in the previous study. Substrate Phe-Pro-Arg-AMC was employed for investigating the hydrolysis of bovine trypsin. Trypsin working solution (10 µL trypsin stock solution (0.1 µM) + 9.99 mL HCl (1 mM)) and trypsin substrate working solution (50 µL substrate stock solution (Phe-Pro-Arg-AMC) (10 mM) + 9.95 mL PBS) were prepared prior to use. Trypsin inhibition assay contained three groups, namely positive control (20 µL PBS, 180 µL substrate working solution, 10 µL trypsin working solution), blank control (20 µL PBS + 10 µL HCl (1 mM) + 180 µL substrate working solution) and peptide group (20 µL peptide solution with the concentration ranging from 10 to 1000 µM, 180 µL substrate working solution, 10 µL trypsin working solution). The fluorescent strength released from hydrolysis of the substrate was monitored at 37 °C at the wavelength of 460 nm (excitation at 360 nm) in a POLARstar Omega Microplate Reader (B.M.G. Labtech, Offenburg, German). Each concentration of the sample was carried out in triplicate and repeated at least three times.
Peptide concentration ( μM)
Figure S3. The progress curve of inhibition rate in the presence of different concentrations of pep-tides (a) Kunitzin-AH; (b) AH-1363; (c) AH-unoxidized; (d) AH-1447; (e) AH-798; (f) AH-880-I; (g) […]
The Y-axis represented the rate of the fluorescence decay, while the X-axis represented peptide concentrations in µM. The Ki values were calculated by Morrison formula in Prism 6, in […]
Error bars represent standard error of mean
(SEM) of three replicates. […]

horse erythrocytes = test: Hemolytic activity assay; assay type: cell-based; conditions: for Hemolysis: 2% horse erythrocytes suspension, 37 °C, two hours
Experimental: Hemolysis assay was conducted through the incubation of peptides and 2% horse erythrocytes suspension (T.C.S. Biosciences Ltd. Buckingham, UK) at 37 °C for two hours as detailed in the previous study. Afterwards, the positive control (considered as 100% hemolysis of cells) was conducted with 1% Triton X-100 (Sigma, Dorset, UK), while the negative control (0%) was treated with phosphate-buffered saline (PBS). The absorbance values were subsequently measured with a Synergy H.T. plate reader (BioTech, Minneapolis, MN, USA) and calculated by using Gen 5 software at a wavelength of 550 nm.

[1] = Morrison formula, three independent experiments, 37 °C, read-out: Ki Value

| Structure (SMILES) | Ki (bovine trypsin; [1]) [µM] | Hemolysis (horse erythrocytes) [µM] | Ki (bovine trypsin) [µM] | hemolytic activity (in words) (horse erythrocytes; normal horse erythrocytes) |
| --- | --- | --- | --- | --- |
| C[C@@H]1NC(=O)[C@H](C)NC(=O)[C@H](CCCCN)NC(=O)[C@@H](NC(=O)[C@@H](N)CCCNC(=N)N)CSSC[C@@H](C(=O)O)NC(=O)[C@H](Cc2ccccc2)NC1=O [AH-798, RCKAAFC] (H-RCKAAFC-OH; disulfide 2-7) | 1.76 ± 0.13 | >512 |  |  |
| CC[C@H](C)[C@@H]1NC(=O)[C@H](CCCCN)NC(=O)[C@@H](NC(=O)[C@@H](N)CCCNC(=N)N)CSSC[C@@H](C(=O)O)NC(=O)[C@H](Cc2ccccc2)NC(=O)[C@H]([C@@H](C)CC)NC1=O [AH-880-I, RCKIIFC] (H-RCKIIFC-OH; disulfide 2-7) | 16.1 ± 1.2 | >512 |  |  |
| N=C(N)NCCC[C@H](N)C(=O)N[C@H]1CSSC[C@@H](C(=O)O)NC(=O)[C@H](Cc2ccccc2)NC(=O)[C@H](CC(N)=O)NC(=O)[C@H](CC(N)=O)NC(=O)[C@H](CCCCN)NC1=O [AH-884, RCKNNFC] (H-RCKNNFC-OH; disulfide 2-7) | 133 ± 4.1 | >512 |  |  |
| CC(C)[C@H](NC(=O)[C@H](C)N)C(=O)N[C@@H](CCCNC(=N)N)C(=O)N1CCC[C@H]1C(=O)N1CCC[C@H]1C(=O)N[C@@H](Cc1ccccc1)C(=O)N[C@@H](CCCNC(=N)N)C(=O)N[C@@H](CS)C(=O)N[C@@H](CCCCN)C(=O)N[C@@H](C)C(=O)N[C@@H](C)C(=O)N[C@@H](Cc1ccccc1)C(=O)O [AH-1363, AVRPPFRCKAAF] (H-AVRPPFRCKAAF-OH; N-terminus and C-terminus assumed) |  | >512 | 96.9 ± 1.2 |  |
| CC(C)[C@H](NC(=O)[C@H](C)N)C(=O)N[C@@H](CCCNC(=N)N)C(=O)N1CCC[C@H]1C(=O)N1CCC[C@H]1C(=O)N[C@@H](Cc1ccccc1)C(=O)N[C@@H](CCCNC(=N)N)C(=O)N[C@H]1CSSC[C@@H](C(=O)O)NC(=O)[C@H](CCCCN)NC(=O)[C@H](C)NC(=O)[C@H](C)NC(=O)[C@H](CCCCN)NC1=O [AH-1447, AVRPPFRCKAAKC] (H-AVRPPFRCKAAKC-OH; disulfide 8-13) |  | >512 | 349.2 ± 0.93 |  |
| CC(C)[C@H](NC(=O)[C@H](C)N)C(=O)N[C@@H](CCCNC(=N)N)C(=O)N1CCC[C@H]1C(=O)N1CCC[C@H]1C(=O)N[C@@H](Cc1ccccc1)C(=O)N[C@@H](CCCNC(=N)N)C(=O)N[C@@H](CS)C(=O)N[C@@H](CCCCN)C(=O)N[C@@H](C)C(=O)N[C@@H](C)C(=O)N[C@@H](Cc1ccccc1)C(=O)N[C@@H](CS)C(=O)O [AH-unoxidized, AVRPPFRCKAAFC] (H-AVRPPFRCKAAFC-OH) |  | >512 | 59.9 ± 2.82 |  |
| CC(C)[C@H](NC(=O)[C@H](C)N)C(=O)N[C@@H](CCCNC(=N)N)C(=O)N1CCC[C@H]1C(=O)N1CCC[C@H]1C(=O)N[C@@H](Cc1ccccc1)C(=O)N[C@@H](CCCNC(=N)N)C(=O)N[C@H]1CSSC[C@@H](C(=O)O)NC(=O)[C@H](Cc2ccccc2)NC(=O)[C@H](C)NC(=O)[C@H](C)NC(=O)[C@H](CCCCN)NC1=O [Kunitzin-AH, AVRPPFRCKAAFC] (H-AVRPPFRCKAAFC-OH; disulfide 8-13) |  | >512 | 1.18 ± 0.08 | without inducing damage to healthy horse erythrocytes |
